This assay deals with T1, hSCN9A (Homo sapiens, UniProt Q15858).
T1 construct: expressed in transfected cells
Briefly: Whole-cell patch-clamp electrophysiology (conventional or PatchXpress), HEK cells expressing hSCN9A, estimated IC-50. It is filed as cell-based. The following applies: estimated IC-50, HEK cells expressing hSCN9A; class symbols or bounds; read-out: SCN9A EIC-50. An outline of the steps:
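Stably transfected HEK cells recorded by whole-cell voltage clamp (manual or PatchXpress) at 22–24 °C in pH 7.4 HEPES-buffered extracellular solution. Cells held at the empirically determined inactivation V1/2 after an 8 s prepulse, then stepped to 0 mV for 20 ms; % inhibition from current amplitude before vs after compound.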

For 14 compounds, IC50 results are on record in patent US8124610B2, “Sodium channel inhibitors” (Icagen Inc., priority 2007, dated 2012).

T1 sequence (Q15858 whole entry): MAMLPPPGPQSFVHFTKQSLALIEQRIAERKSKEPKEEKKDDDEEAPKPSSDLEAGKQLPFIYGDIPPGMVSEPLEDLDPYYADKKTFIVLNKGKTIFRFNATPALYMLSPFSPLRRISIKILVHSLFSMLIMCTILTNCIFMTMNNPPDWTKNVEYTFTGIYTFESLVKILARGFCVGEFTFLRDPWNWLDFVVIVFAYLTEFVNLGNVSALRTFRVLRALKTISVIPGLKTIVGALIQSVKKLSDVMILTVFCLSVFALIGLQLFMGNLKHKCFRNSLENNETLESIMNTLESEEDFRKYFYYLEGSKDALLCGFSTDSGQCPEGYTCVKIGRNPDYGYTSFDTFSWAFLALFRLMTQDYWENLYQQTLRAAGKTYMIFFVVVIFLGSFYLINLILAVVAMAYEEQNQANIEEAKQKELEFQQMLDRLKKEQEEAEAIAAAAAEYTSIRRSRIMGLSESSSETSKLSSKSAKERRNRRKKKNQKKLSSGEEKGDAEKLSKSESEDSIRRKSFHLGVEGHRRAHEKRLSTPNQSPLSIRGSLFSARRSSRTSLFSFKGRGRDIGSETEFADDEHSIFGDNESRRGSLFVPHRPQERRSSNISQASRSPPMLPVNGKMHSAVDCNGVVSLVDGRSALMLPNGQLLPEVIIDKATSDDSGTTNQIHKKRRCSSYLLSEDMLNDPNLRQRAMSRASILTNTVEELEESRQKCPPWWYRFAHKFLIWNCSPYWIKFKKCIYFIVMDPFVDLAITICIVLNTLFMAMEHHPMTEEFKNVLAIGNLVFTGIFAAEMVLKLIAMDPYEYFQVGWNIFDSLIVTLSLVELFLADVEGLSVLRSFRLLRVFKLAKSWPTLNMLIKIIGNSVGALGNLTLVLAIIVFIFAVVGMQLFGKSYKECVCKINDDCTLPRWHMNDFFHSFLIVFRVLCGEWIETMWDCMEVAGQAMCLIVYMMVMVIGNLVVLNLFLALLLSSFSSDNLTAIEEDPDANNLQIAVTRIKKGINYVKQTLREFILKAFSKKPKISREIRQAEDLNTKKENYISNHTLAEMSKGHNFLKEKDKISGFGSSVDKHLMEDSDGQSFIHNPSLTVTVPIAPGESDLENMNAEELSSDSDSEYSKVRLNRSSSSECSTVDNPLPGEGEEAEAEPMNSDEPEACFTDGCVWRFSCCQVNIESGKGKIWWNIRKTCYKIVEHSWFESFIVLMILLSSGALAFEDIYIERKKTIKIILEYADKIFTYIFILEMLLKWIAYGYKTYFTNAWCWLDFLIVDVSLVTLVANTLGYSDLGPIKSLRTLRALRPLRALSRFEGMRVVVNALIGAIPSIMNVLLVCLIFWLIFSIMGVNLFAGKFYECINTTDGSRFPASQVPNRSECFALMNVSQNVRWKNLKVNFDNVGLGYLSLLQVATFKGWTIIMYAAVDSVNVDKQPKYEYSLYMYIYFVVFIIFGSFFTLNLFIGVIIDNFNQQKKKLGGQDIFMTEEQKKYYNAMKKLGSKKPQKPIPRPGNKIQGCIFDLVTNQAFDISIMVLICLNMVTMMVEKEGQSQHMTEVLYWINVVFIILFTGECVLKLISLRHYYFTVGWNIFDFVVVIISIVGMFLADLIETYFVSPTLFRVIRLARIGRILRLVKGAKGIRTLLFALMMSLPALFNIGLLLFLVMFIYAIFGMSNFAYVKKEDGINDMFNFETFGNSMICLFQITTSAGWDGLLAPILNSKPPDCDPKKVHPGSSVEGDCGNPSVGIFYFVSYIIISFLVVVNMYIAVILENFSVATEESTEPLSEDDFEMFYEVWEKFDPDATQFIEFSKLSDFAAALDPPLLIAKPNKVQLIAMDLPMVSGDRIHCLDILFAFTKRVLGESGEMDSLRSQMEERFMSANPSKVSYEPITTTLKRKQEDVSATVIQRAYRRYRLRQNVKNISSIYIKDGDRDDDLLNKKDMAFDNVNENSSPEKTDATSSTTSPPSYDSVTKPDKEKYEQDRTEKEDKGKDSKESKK

As for `CCc1nnc(NS(=O)(=O)c2ccc(Nc3ccn(Cc4ccc(Cl)cc4)n3)cc2F)s1` [Compound 255, 4-(1-(4-chlorobenzyl)-1H-pyrazol-3-ylamino)-N-(5-ethyl-1,3,4-thiadiazol-2-yl)-2-fluorobenzenesulfonamide], the IC50 is greater than 1 µM.
With `CC(C)c1nnc(NS(=O)(=O)c2ccc(Nc3ccn(Cc4ccc(Cl)cc4)n3)cc2F)s1` [Compound 256, 4-(1-(4-chlorobenzyl)-1H-pyrazol-3-ylamino)-2-fluoro-N-(5-isopropyl-1,3,4-thiadiazol-2-yl)benzenesulfonamide], the IC50 is greater than 1 µM.
Take `O=S(=O)(Nc1nc(C(F)(F)F)cs1)c1ccc(Nc2nc(Cc3ccc(Cl)cc3)cs2)cc1` [Compound 257, 4-(4-(4-chlorobenzyl)thiazol-2-ylamino)-N-(4-(trifluoromethyl)thiazol-2-yl)benzenesulfonamide]: the IC50 was 2 to 10 µM.
The value for `O=S(=O)(Nc1nc(C(F)(F)F)co1)c1ccc(Nc2nc(Cc3ccc(Cl)cc3)cs2)cc1` [Compound 258, 4-(4-(4-chlorobenzyl)thiazol-2-ylamino)-N-(4-(trifluoromethyl)oxazol-2-yl)benzenesulfonamide] was greater than 1 µM; that for `Cc1cccc(NS(=O)(=O)c2ccc(Nc3ccn(Cc4ccc(Cl)cc4)n3)cc2F)n1` [Compound 259, 4-(1-(4-chlorobenzyl)-1H-pyrazol-3-ylamino)-2-fluoro-N-(6-methylpyridin-2-yl)benzenesulfonamide] was greater than 3 µM.
The value for `O=S(=O)(Nc1cccnn1)c1ccc(Nc2ccn(Cc3ccc(Cl)cc3)n2)cc1F` [Compound 260, 4-(1-(4-chlorobenzyl)-1H-pyrazol-3-ylamino)-2-fluoro-N-(pyridazin-3-yl)benzenesulfonamide] was greater than 1 µM; that for `Cc1nnc(NS(=O)(=O)c2ccc(Nc3ccn(Cc4ccc(Cl)cc4)n3)cc2F)o1` [Compound 261, 4-(1-(4-chlorobenzyl)-1H-pyrazol-3-ylamino)-2-fluoro-N-(5-methyl-1,3,4-oxadiazol-2-yl)benzenesulfonamide] was greater than 1 µM.
With `O=S(=O)(Nc1ccncn1)c1ccc(Nc2ccn(Cc3ccc(Cl)cc3)n2)cc1F` [Compound 262, 4-(1-(4-chlorobenzyl)-1H-pyrazol-3-ylamino)-2-fluoro-N-(pyrimidin-4-yl)benzenesulfonamide], the IC50 is 2 to 10 µM.
`O=S(=O)(Nc1nncs1)c1ccc(Nc2ccn(Cc3ccc(Cl)cc3)n2)cc1C(F)(F)F` [Compound 265, 4-(1-(4-chlorobenzyl)-1H-pyrazol-3-ylamino)-N-(1,3,4-thiadiazol-2-yl)-2-(trifluoromethyl)benzenesulfonamide]: the IC50 was less than 2 µM.
In the case of `Cc1cc(Nc2cc(F)c(S(=O)(=O)Nc3nccs3)cc2F)n(-c2ccccc2)n1` [Compound 267, 2,5-difluoro-4-(3-methyl-1-phenyl-1H-pyrazol-5-ylamino)-N-(thiazol-2-yl)benzenesulfonamide], the IC50 is less than 2 µM.
The value for `Cc1cc(Nc2ccc(S(=O)(=O)Nc3nccs3)c(C)c2)n(-c2ccccc2)n1` [Compound 268, 2-methyl-4-(3-methyl-1-phenyl-1H-pyrazol-5-ylamino)-N-(thiazol-2-yl)benzenesulfonamide] was 2 to 10 µM; that for `Cc1cc(Nc2ccc(S(=O)(=O)Nc3nccs3)c(OC(F)(F)F)c2)n(-c2ccccc2)n1` [Compound 270, 4-(3-methyl-1-phenyl-1H-pyrazol-5-ylamino)-N-(thiazol-2-yl)-2-(trifluoromethoxy)benzenesulfonamide] was greater than 1 µM; that for `Cc1cc(Nc2ccn(Cc3ccc(Cl)cc3)n2)ccc1S(=O)(=O)Nc1nccs1` [Compound 271, 4-(1-(4-chlorobenzyl)-1H-pyrazol-3-ylamino)-2-methyl-N-(thiazol-2-yl)benzenesulfonamide] was 2 to 10 µM.
The value for `Cc1cc(Nc2ccc(S(=O)(=O)Nc3nccs3)c(C(F)(F)F)c2)n(-c2ccccc2)n1` [Compound 272, 4-(3-methyl-1-phenyl-1H-pyrazol-5-ylamino)-N-(thiazol-2-yl)-2-(trifluoromethyl)benzenesulfonamide] was greater than 1 µM.
